What was measured:
Type in all cases: in vivo, rat
Male Sprague-Dawley rats [1] = assay: tests of locomotor function (placing, grasping, righting reflex) and general behaviors; conditions: mean (SD)
Procedure: The effects of ODNs on locomotor function were examined using the following methods.^52 The animals were organized randomly into six groups: control (saline); 12.5 antisense ODN; 25 μg antisense ODN; 50 μg antisense ODN; 50 μg sense ODN; 50 μg missense ODN. The rats were pretreated with ODNs or saline in the manner described above. On the fifth day, 10 μl of saline was injected intrathecally for each rat. In some saline or antisense ODN (50 μg)-treated rats, fresh NMDA solution (1.25 μg/10 μl) was injected intrathecally. The following tests were performed with the experimenter blind to which group was treated with the agents: (1) Placing reflex: The rat was held with the hind limbs slightly lower than the forelimbs, and the dorsal surfaces of the hind paws were brought into contact with the edge of a table. The experimenter recorded whether the hind paws were placed on the table surface reflexively; (2) Grasping reflex: The rat was placed on a wire grid and the experimenter recorded whether the hind paws grasped the wire on contact; (3) Righting reflex: The rat was placed on its back on a flat surface and the experimenter noted whether it immediately assumed the normal upright position. […] In addition, the rat general behaviors including spontaneous activity were observed.

Male Sprague-Dawley rats [2] = assay: measurement of isoflurane MAC (tail clamp); conditions: for MAC (isoflurane): mean ± SD
Procedure: The ODNs were dissolved in saline before administration. As described in the previous work,^49 the rats were injected intrathecally with saline (10 μl) (control), antisense ODNs (12.5, 25, 50 μg/10 μl), sense ODN (50 μg/10 μl) and missense ODN (50 μg/10 μl), respectively, followed by an injection of 10 μl of saline to flush the catheter, every 24 h for 4 days.
(§1) On the fifth day after saline or ODNs injection, each rat was placed in a clear plastic cone and anesthetized with 5% isoflurane in oxygen for three to five minutes. After tracheostomy, the trachea of each animal was intubated with a 16-gauge polyethylene catheter. The inspired isoflurane concentration was reduced to 2%, and the animals breathed spontaneously until cannulation of a carotid artery and a jugular vein with PE-50 tubing was accomplished. The isoflurane concentration was decreased further to 1.5%, and ventilation was controlled by a Harvard Animal Respirator (Harvard Apparatus, South Natick, Mass.) adjusted according to the measurement of arterial blood gases to maintain normal partial pressure of oxygen (PO2=91-94 mmHg), partial pressure of carbon dioxide (PCO2=33-41 mmHg) and pH (7.4-7.44). Electrocardiography and systolic and diastolic blood pressure were monitored using a Grass Polygraph (Astroumed Grass, Quincy, Mass.) and Gould Pressure Transducer (Gould, Cleveland, Ohio). Rectal temperature was maintained between 36.5 and 37.5° C. by use of a heating blanket and warming lights.
A PE-10 catheter was introduced through and beyond the endotracheal tube until obstruction to passage was met and then withdrawn 1 to 2 mm. For isoflurane MAC measurement, the PE-10 catheter was connected to a parameter airway gas monitor (Datex-Engstrom, Inc., Tewksbury, Mass.). After stabilizing about 30 minutes, MAC was measured according to the methods described previously^34 using a long hemostat (8-inch Rochester Dean Hemostatic Forceps) clamped to the first ratchet lock on the tail for 1 min. The tail was always stimulated proximal to a previous test site. Gross movement of the head, extremities, or body was taken as a positive test result, whereas grimacing, swallowing, chewing, or tail flick were considered negative results. The isoflurane concentration was reduced in decrements of 0.12 to 0.15% until the negative response became positive, with 12-15 min equilibration allowed after changes in concentration.^50,51 The MAC was considered to be the concentration midway between the highest concentration that permitted movement in response to the stimulus and the lowest concentration that prevented movement. Finally, intrathecal PE-10 catheter position from each animal was confirmed.
(§2) In some saline-treated rats, after initial baseline MAC determination, NMDA at the dose of 1.25 μg^38 or saline was injected intrathecally in a volume of 10 μl saline, followed by an injection of 10 μl saline to flush the catheter. Fresh NMDA solution was prepared for each experiment. […] At this isoflurane concentration, 10 min after the intrathecal injection of NMDA, the animals were tested again for reactivity to tail clamp. The concentration of isoflurane was increased, and response to tail clamp was checked every 12-15 min thereafter until a negative response was achieved. In some antisense ODN (50 μg)-treated rats, after initial MAC determination, NMDA or saline was also administered intrathecally. The MAC for isoflurane was again determined following the aforementioned procedures.

Male Sprague-Dawley rats [3] = assay: blood pressure and heart rate during isoflurane anesthesia
From the text: as §1, §2

Male Sprague-Dawley rats [4] = assay: formalin-induced pain behaviors (flinches and shakes); conditions: for reduction of the number of flinches and shakes evoked by formalin: 50 μg intrathecal
Procedure: All of the experiments were carried out with the approval of the Animal Care Committee at the Johns Hopkins University. Thirty-eight male Sprague-Dawley rats (250-300 g, Hilltop Laboratory Animals, Scottsdale, Pa., USA) were implanted with an intrathecal PE-10 catheter at the rostral level of the spinal cord lumbar enlargement according to the method described by Yaksh and Rudy. After 4 to 7 days of recovery, they were intrathecally injected with one of the following agents every 24 hours for 4 consecutive days: saline (10 μl, n=6), PSD-95 antisense oligodeoxynucleotide (ODN) (12.5 μg/10 μl, n=6; 25 μg/10 μl, n=6; 50 μg/10 μl, n=6), sense ODN (50 μg/10 μl, n=5) or missense ODN (50 μg/10 μl, n=9). On the fifth day, formalin (4%, 100 μl) was injected into one of the hindpaws. The number of flinches and shakes of the injected paw was assessed for 1 hour. The observational session was divided into phasic (0-10 min) and tonic (10-60 min) periods. Rats were sacrificed two hours after formalin injection and their lumbar spinal cords were harvested for c-fos immunohistochemistry.

[5] = 12.5 μg, count of normal reflexes in five trials
[6] = 25 μg, count of normal reflexes in five trials
[7] = 50 μg AS + 1.25 μg NMDA, five trials
[8] = 50 μg, count of normal reflexes in five trials
[9] = 50 μg intrathecal every 24 h for 4 days
[10] = pretreated with 50 μg antisense ODN, intrathecal NMDA 1.25 μg

5′-TGTGATCTCCTCATACTC-3′ (DNA, backbone and methylation of C not given here; listed as Rattus rattus) [antisense oligonucletide corresponding to the PDZ domain nucleotides 241 to 258 of rat PSD-95/SAP90 mRNA]
Grasping (Male Sprague-Dawley rats [1]; [5]): 5 (0) | Placing (Male Sprague-Dawley rats [1]; [5]): 5 (0) | Righting (Male Sprague-Dawley rats [1]; [5]): 5 (0) | Grasping (Male Sprague-Dawley rats [1]; [6]): 5 (0) | Placing (Male Sprague-Dawley rats [1]; [6]): 5 (0) | Righting (Male Sprague-Dawley rats [1]; [6]): 5 (0) | Grasping (Male Sprague-Dawley rats [1]; [7]): 4.83 (0.41) | Placing (Male Sprague-Dawley rats [1]; [7]): 4.83 (0.41) | Righting (Male Sprague-Dawley rats [1]; [7]): 4.83 (0.41) | Grasping (Male Sprague-Dawley rats [1]; [8]): 4.67 (0.52) | Placing (Male Sprague-Dawley rats [1]; [8]): 4.83 (0.41) | Righting (Male Sprague-Dawley rats [1]; [8]): 4.83 (0.41) | decrease from isoflurane control MAC (Male Sprague-Dawley rats [2]; 12.5 μg): 1% | MAC (isoflurane) (Male Sprague-Dawley rats [2]; 12.5 μg intrathecal every 24 h for 4 days): 1.15 ± 0.18 | decrease from isoflurane control MAC (Male Sprague-Dawley rats [2]; 25 μg): 18% | MAC (isoflurane) (Male Sprague-Dawley rats [2]; 25 μg intrathecal every 24 h for 4 days): 0.98 ± 0.14 | decrease from isoflurane control MAC (Male Sprague-Dawley rats [2]; 50 μg): 44% | MAC (isoflurane) (Male Sprague-Dawley rats [2]; [9]): 0.72 ± 0.05 | increase in isoflurane MAC after NMDA compared to 50 μg antisense ODN alone (Male Sprague-Dawley rats [2]; [10]): did not result in a significant increase | BP Diastolic (Male Sprague-Dawley rats [3]; 12.5 μg, before the tail clamp): 112.58 ± 7.14 mmHg | BP Systolic (Male Sprague-Dawley rats [3]; 12.5 μg, before the tail clamp): 127.58 ± 11.72 mmHg | Heart rate (Male Sprague-Dawley rats [3]; 12.5 μg, before the tail clamp): 534.80 ± 29.13 beats/min | BP Diastolic (Male Sprague-Dawley rats [3]; 25 μg, before the tail clamp): 105.83 ± 7.89 mmHg | BP Systolic (Male Sprague-Dawley rats [3]; 25 μg, before the tail clamp): 122.75 ± 10.81 mmHg | Heart rate (Male Sprague-Dawley rats [3]; 25 μg, before the tail clamp): 541.20 ± 16.70 beats/min | BP Diastolic (Male Sprague-Dawley rats [3]; 50 μg, before the tail clamp): 112.50 ± 11.20 mmHg | BP Systolic (Male Sprague-Dawley rats [3]; 50 μg, before the tail clamp): 129.58 ± 11.73 mmHg | Heart rate (Male Sprague-Dawley rats [3]; 50 μg, before the tail clamp): 514.20 ± 62.20 beats/min | Heart rate (Male Sprague-Dawley rats [3]; [10]): 553±17 beats/min | diastolic blood pressure (Male Sprague-Dawley rats [3]; [10]): 117.00±6.35 mmHg | systolic blood pressure (Male Sprague-Dawley rats [3]; [10]): 138.00±5.77 mmHg | reduction of the number of flinches and shakes evoked by formalin (Male Sprague-Dawley rats [4]; phasic period (0-10 min)): but not in the phasic period | reduction of the number of flinches and shakes evoked by formalin (Male Sprague-Dawley rats [4]; tonic period (10-60 min)): 59% | changes in the number of flinches and shakes vs saline-treated group (Male Sprague-Dawley rats [4]; 12.5 and 25 μg, phasic and tonic periods): failed to produce significant changes

5′-AAGCCCTTGTTCCCATTT-3′ (DNA, backbone and methylation of C not given here; listed as Rattus rattus) [MS, missense OND control, reference compound]
Grasping (Male Sprague-Dawley rats [1]; [8]): 5 (0) | Placing (Male Sprague-Dawley rats [1]; [8]): 5 (0) | Righting (Male Sprague-Dawley rats [1]; [8]): 5 (0) | change of the value for isoflurane MAC compared to the control group (Male Sprague-Dawley rats [2]; 50 μg intrathecal): did not significantly change | MAC (isoflurane) (Male Sprague-Dawley rats [2]; [9]): 1.13 ± 0.15 | BP Diastolic (Male Sprague-Dawley rats [3]; 50 μg, before the tail clamp): 105.75 ± 11.40 mmHg | BP Systolic (Male Sprague-Dawley rats [3]; 50 μg, before the tail clamp): 121.33 ± 15.84 mmHg | Heart rate (Male Sprague-Dawley rats [3]; 50 μg, before the tail clamp): 524.70 ± 44.90 beats/min | difference in the number of flinches and shakes vs saline-treated group (Male Sprague-Dawley rats [4]; 50 μg/10 μl, either period): did not show any significant difference
